Source: patent publication US10464952B2, “Beta-lactamase inhibitors” (priority 2015, dated 2019)
pIC50: −log10 of the molar value.

Experiments:
[1] = system: K. pneumoniae expressing the class A carbapenemase KPC-2 and the class B carbapenemase VIM-4; assay: Broth microdilution MIC assay, potentiation of meropenem; type: cell-based; conditions: for MIC (μg/mL) of exemplary compounds in presence of fixed β-lactams, K.P. A-1797 KPC-2 VIM-4: Fixed Mero 4 μg/mL, CAMHB, 16-20 hours at 37° C.
Text: (§1) To determine the ability of test compounds to potentiate the inhibition of the growth of bacterial strains that produce beta-lactamase enzymes, classic cell based broth microdilution MIC assays were employed. Six bacteria strains producing beta-lactamase enzymes were used: E. coli expressing the Class A Extended Spectrum Beta-Lactamase (ESBL) CTX-M-15, E. cloacae expressing the Class C P99, K. pneumoniae expressing the Class A carbapenemase KPC-3, P.aeruginosa expressing the Class B carbapenemase VIM-2, K. pneumoniae expressing the class A carbapenemase KPC-2 and the class B carbapenemase VIM-4, and K. pneumoniae producing the Class D carbapenemase OXA-48. The assay was conducted in Cation Adjusted Mueller Hinton Broth (CAMHB, BD #212322, BD Diagnostic Systems, Sparks, Md.). Bacteria strains were grown for 3-5 hours in CAMHB broth. Test compounds were added to a microtiter plate in 2-fold serial dilutions in CAMHB in a final concentration range of 32 μg/mL to 0.015 μg/mL. An overlay of CAMHB containing a Beta-lactam was added to the compounds at a final static concentration of 4 μg/mL. […] In addition to the titration of test compounds the MICs of a panel of control beta-lactams is also tested to ensure the strains are behaving consistently from test to test. Once the test compound and antibiotics are added the plates can be inoculated according to CLSI broth microdilution method. After inoculation, the plates are incubated for 16-20 hours at 37° C., then the Minimal Inhibitory Concentration (MIC) of the test compound is determined visually.
(§2) Using the methodology described above, examples of the current invention were evaluated for their ability to inhibit the growth of β-lactamase-producing bacteria in the presence of a β-lactam antibiotic.
(§3) Representative results are shown in Table 3 where A represents an MIC of the fixed β-lactam antibiotic in the presence of >32 μg/mL of a β-lactamase inhibitor of exemplary compounds, B represents the MIC in the presence of between 8 and 32 μg/mL of a β-lactamase inhibitor of exemplary compounds, and C represents the MIC in the presence of ≤4 μg/mL of a β-lactamase inhibitor of exemplary compounds. NT=Not Tested.

[2] = system: P.aeruginosa expressing the Class B carbapenemase VIM-2; assay: as above; type: cell-based; conditions: for MIC (μg/mL) of exemplary compounds in presence of fixed β-lactams, P. aerug. 2775 VIM-2: Fixed Mero 4 μg/mL, CAMHB, 16-20 hours at 37° C.
Text: as §1, §2, §3

p99 AmpC = molecular target: T1, p99 AmpC (Enterobacter cloacae, UniProt P05364); assay: β-lactamase enzyme inhibition assay, p99 AmpC (nitrocefin substrate); type: biochemical
T1 construct: made in house; host or cells: E. coli BL21(DE3)
T1 sequence (P05364 21-381): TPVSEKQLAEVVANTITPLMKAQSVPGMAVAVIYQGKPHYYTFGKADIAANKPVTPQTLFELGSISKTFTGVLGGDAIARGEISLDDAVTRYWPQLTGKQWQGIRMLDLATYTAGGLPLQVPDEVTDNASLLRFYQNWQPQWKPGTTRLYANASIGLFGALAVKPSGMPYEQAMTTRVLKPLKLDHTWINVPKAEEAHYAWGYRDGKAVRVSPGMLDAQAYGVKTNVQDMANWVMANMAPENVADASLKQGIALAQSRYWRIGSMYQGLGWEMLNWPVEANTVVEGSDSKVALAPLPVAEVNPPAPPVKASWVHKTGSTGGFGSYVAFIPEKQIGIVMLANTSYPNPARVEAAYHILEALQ
Procedure: (§4) For SHV-5, KPC-2, p99AmpC and OXA-4813-lactamases, E. coli BL21(DE3) bacterial cells carrying expression plasmids (expressed as native untagged proteins) for the individual β-lactamases were grown in 1L of Superbroth (Teknova Inc. Hollister, Calif.) supplemented with 100 μg/ml kanamycin selection and 1×5052 (0.5% glycerol, 0.05% glucose and 0.2% α-lactose) at 35° C. for 18-20 hours. Cells were harvested by centrifugation (4,000 ×g, 4° C., 20 min), re-suspended in 50 ml of 10 mM HEPES pH 7.5 (1/20 of the initial volume). The cells were lysed by sonication (5 pulses of 45 seconds) at 45 Won ice. The lysates were clarified by centrifugation at 10,000 ×g for 40 minutes at 4° C. Samples were diluted 5-fold in 50 mM sodium acetate pH 5.0, stored overnight at 4° C., after which they were centrifuged at 10,000 ×g for 30 minutes to clarify, and filtered through 0.45 μm filters. The samples were loaded onto a 5 ml Capto S sepharose cation exchange column (GE Healthcare) pre-equilibrated with 50 mM sodium acetate pH 5.0. The column was washed with 5 column volumes of 50 mM sodium acetate pH 5.0 to wash out unbound protein and a linear gradient of NaCl (0 to 500 mM) was used to elute the protein (over 16 CV) from the column. Fractions were assayed for β-lactamase activity using Centa (Calbiochem, Gibbstown, N.J.) or Nitrocefin (EMD Millipore chemicals, Darmstadt, Germany) as a reporter β-lactamase substrate for activity in the isolated fractions. Active fractions were pooled, concentrated and further purified by gel filtration chromatography on a Superdex 75 prep grade gel filtration column (GE Healthcare, Piscataway, N.J.) pre -equilibrated in 50 mM Hepes pH 7.5, 150 mM NaCl. Active fractions were pooled, concentrated, and quantitated by BCA protein determination (ThermoScientific, Rockford, Ill.), dialyzed into PBS and frozen at […] in 20% glycerol until use.
(§5) An equal volume of diluted enzyme stock was added, and the plates were incubated at 37° C. for 15 min. Nitrocefin was used as substrate for p99 AmpC, VIM-2 and OXA-48 and dispensed into each well at a final concentration of 100 μM. Absorbance at 486 nm was immediately monitored for 10 min using a Biotek Powerwave XS2 microplate spectrophotometer using the GEN5 software package (Biotek Instruments, Winooski Vt.). In an analogous fashion, imipenem was used as substrate for KPC-2 and Cefotaxime was used for SHV-5, while changes in absorbance upon hydrolysis of the β-lactam ring were monitored at 300 nm and 260 nm respectively in UV-transparent 96-well microtiter assay plates. Maximum rates of hydrolysis were compared to those in control wells (without inhibitors), and percentages of enzyme inhibition were calculated for each concentration of inhibitor. The concentration of inhibitor needed to reduce the initial rate of hydrolysis of substrate by 50% (IC50) was calculated as the residual activity of β-lactamase at 486 nm using GraFit version 7 kinetics software package (Erithacus Software, Surrey, UK).
(§6) Using the methodology described above, examples of the current invention were evaluated for their ability to inhibit β-lactamase enzymes from all four Ambler classifications (A through D). […] NT=Not tested.

SHV-5 = molecular target: T2, SHV-5 (Klebsiella pneumoniae, UniProt P0A3M1); assay: β-lactamase enzyme inhibition assay, SHV-5 (cefotaxime substrate); type: biochemical
T2 construct: made in house; host or cells: E. coli BL21(DE3)
T2 sequence (P0A3M1 22-286): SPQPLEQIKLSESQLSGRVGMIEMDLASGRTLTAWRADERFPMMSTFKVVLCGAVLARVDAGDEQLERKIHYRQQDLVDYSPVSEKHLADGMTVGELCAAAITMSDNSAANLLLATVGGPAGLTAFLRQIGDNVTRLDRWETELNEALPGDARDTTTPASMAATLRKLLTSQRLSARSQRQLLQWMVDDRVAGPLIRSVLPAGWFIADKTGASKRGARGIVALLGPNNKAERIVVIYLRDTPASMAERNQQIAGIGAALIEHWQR
Procedure: as §4, §5, §6

KPC-2 = molecular target: T3, KPC-2 (Klebsiella pneumoniae, UniProt Q9F663); assay: β-lactamase enzyme inhibition assay, KPC-2 (imipenem substrate); type: biochemical
T3 construct: made in house; host or cells: E. coli BL21(DE3)
T3 sequence (Q9F663 25-293 limits assumed): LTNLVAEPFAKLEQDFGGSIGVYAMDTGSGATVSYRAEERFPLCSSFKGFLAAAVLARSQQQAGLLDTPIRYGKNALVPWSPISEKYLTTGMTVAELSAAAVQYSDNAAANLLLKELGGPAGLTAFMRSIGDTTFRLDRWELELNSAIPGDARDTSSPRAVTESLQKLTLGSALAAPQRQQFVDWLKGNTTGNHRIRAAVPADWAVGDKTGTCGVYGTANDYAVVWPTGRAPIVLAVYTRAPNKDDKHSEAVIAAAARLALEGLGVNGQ
Procedure: as §4, §5, §6

[3] = system: K. pneumoniae producing the Class D carbapenemase OXA-48; assay: Broth microdilution MIC assay, potentiation of meropenem; type: cell-based; conditions: Fixed Mero 4 μg/mL; CAMHB, 16-20 hours at 37° C.
Text: as §1, §2

[4] = system: K. pneumoniae expressing the Class A carbapenemase KPC-3; assay: as above; type: cell-based; conditions: Fixed Mero 4 μg/mL; CAMHB, 16-20 hours at 37° C.
Text: as §1, §2

[5] = molecular target: T4, VIM-2 metallo β-lactamase (Pseudomonas aeruginosa, UniProt Q9K2N0); assay: β-lactamase enzyme inhibition assay, VIM-2 (nitrocefin substrate); type: biochemical; conditions: 15 min preincubation at 37° C.; nitrocefin 100 μM, 486 nm; read-out: IC50 VIM-2 (Class B)
T4 construct: made in house; host or cells: E. coli BL21(DE3)
Procedure: For VIM-2 metallo β-lactamase, the procedure was identical with the following exceptions, first the protein was not pH adjusted to pH 5 with 50 mM sodium acetate. Second, the chromatography step was changed to a 5 ml Q sepharose anion exchange column pre-equilibrated with 50 mM Hepes pH 7.5, and elution of the protein was achieved by a linear gradient of NaCl (0-600 mM). Finally, the VIM-2 purification required a second run (3rd step) on the Q sepharose anion exchange column to achieve acceptable purity (>90%).
as §5, §6

[6] = system: E. coli expressing the Class A Extended Spectrum Beta-Lactamase (ESBL) CTX-M-15; assay: Broth microdilution MIC assay, potentiation of ceftazidime; type: cell-based; conditions: for MIC (μg/mL) of exemplary compounds in presence of fixed β-lactams, E. coli ESBL4 CTX-M-15: Fixed CAZ 4 μg/mL, CAMHB, 16-20 hours at 37° C.
Text: as §1, §2, §3

[7] = system: E. cloacae expressing the Class C P99; assay: as above; type: cell-based; conditions: for MIC (μg/mL) of exemplary compounds in presence of fixed β-lactams, E. cl. 144200 p99 AmpC: Fixed CAZ 4 μg/mL, CAMHB, 16-20 hours at 37° C.
Text: as §1, §2, §3

OXA-48 = molecular target: T5, OXA-48 (Klebsiella pneumoniae, UniProt Q6XEC0); assay: β-lactamase enzyme inhibition assay, OXA-48 (nitrocefin substrate); type: biochemical
T5 construct: made in house; host or cells: E. coli BL21(DE3)
T5 sequence (Q6XEC0 23-265 limits assumed): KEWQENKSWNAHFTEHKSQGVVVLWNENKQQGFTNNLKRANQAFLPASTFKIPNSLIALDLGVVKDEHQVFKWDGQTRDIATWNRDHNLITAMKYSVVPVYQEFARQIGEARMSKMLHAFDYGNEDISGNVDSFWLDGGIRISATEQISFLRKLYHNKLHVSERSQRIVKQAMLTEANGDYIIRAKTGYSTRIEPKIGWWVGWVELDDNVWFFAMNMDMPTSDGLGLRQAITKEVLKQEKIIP
Procedure: as §4, §5, §6

| SMILES | MIC (μg/mL) of exemplary compounds in presence of fixed β-lactams, K.P. A-1797 KPC-2 VIM-4 [1] | MIC (μg/mL) of exemplary compounds in presence of fixed β-lactams, P. aerug. 2775 VIM-2 [2] | pIC50 (p99 AmpC) | pIC50 (SHV-5) | pIC50 (KPC-2) | MIC (μg/mL) of exemplary compounds in presence of fixed β-lactams, K. P. 11978 OXA-48 [3] | MIC (μg/mL) of exemplary compounds in presence of fixed β-lactams, K. P. 156319 KPC-3 [4] | pIC50 [5] | MIC (μg/mL) of exemplary compounds in presence of fixed β-lactams, E. coli ESBL4 CTX-M-15 [6] | MIC (μg/mL) of exemplary compounds in presence of fixed β-lactams, E. cl. 144200 p99 AmpC [7] | pIC50 (OXA-48) | MIC alone of partner antibiotic ([6]; antibiotic alone, E. coli expressing Ambler Class A ESBL CTX-M-15) [µg/mL] | MIC alone of partner antibiotic ([7]; antibiotic alone, E. cloacae expressing Class C P99) [µg/mL] | MIC alone of partner antibiotic ([1]; antibiotic alone, K. pneumoniae expressing KPC-2 and VIM-4) [µg/mL] | MIC alone of partner antibiotic ([2]; antibiotic alone, P. aeruginosa expressing VIM-2) [µg/mL] |
| --- | --- | --- | --- | --- | --- | --- | --- | --- | --- | --- | --- | --- | --- | --- | --- |
| CC(F)C(=O)N[C@H]1Cc2cccc(C(=O)O)c2OB1O (mixture of isomers) [Example 102, (3R)-3-(2-fluoropropanamido)-2-hydroxy-3,4-dihydro-2H -benzo[e][1,2]oxaborinine-8-carboxylic acid] | B (B represents the MIC in the presence of between 8 and 32 μg/mL of a β-lactamase inhibitor) | C (C represents the MIC in the presence of ≤4 μg/mL of a β-lactamase inhibitor) | > 7.00 | > 7.00 | > 7.00 | C (C represents the MIC in the presence of ≤4 μg/mL of a β-lactamase inhibitor) | C (C represents the MIC in the presence of ≤4 μg/mL of a β-lactamase inhibitor) | 5.00 to 6.00 | C (C represents the MIC in the presence of ≤4 μg/mL of a β-lactamase inhibitor) | C (C represents the MIC in the presence of ≤4 μg/mL of a β-lactamase inhibitor) | 6.00 to 7.00 | – | – | – | – |
| CC(C)(O/N=C(\C(=O)N[C@@H]1C(=O)N2C(C(=O)[O-])=C(C[n+]3ccccc3)CS[C@H]12)c1csc(N)n1)C(=O)O [Ceftazidime, reference compound] | – | – | – | – | – | – | – | – | – | – | – | > 128 | 128 | – | – |
| CCC(F)(F)C(=O)N[C@H]1Cc2cccc(C(=O)O)c2OB1O [Example 1, (R)-3-(2,2-difluorobutanamido)-2-hydroxy-3,4-dihydro-2H-benzo [e] [1,2] oxaborinine-8-carboxylic acid] | B (B represents the MIC in the presence of between 8 and 32 μg/mL of a β-lactamase inhibitor) | C (C represents the MIC in the presence of ≤4 μg/mL of a β-lactamase inhibitor) | > 7.00 | > 7.00 | 6.00 to 7.00 | C (C represents the MIC in the presence of ≤4 μg/mL of a β-lactamase inhibitor) | B (B represents the MIC in the presence of between 8 and 32 μg/mL of a β-lactamase inhibitor) | 5.00 to 6.00 | C (C represents the MIC in the presence of ≤4 μg/mL of a β-lactamase inhibitor) | C (C represents the MIC in the presence of ≤4 μg/mL of a β-lactamase inhibitor) | 6.00 to 7.00 | – | – | – | – |
| O=C(CCCC(F)(F)F)N[C@H]1Cc2cccc(C(=O)O)c2OB1O [Example 2, (R)-2-hydroxy-3-(5,5,5-trifluoropentanamido)-3,4-dihydro-2H-benzo[e][1,2]oxaborinine-8-carboxylic acid] | C (C represents the MIC in the presence of ≤4 μg/mL of a β-lactamase inhibitor) | B (B represents the MIC in the presence of between 8 and 32 μg/mL of a β-lactamase inhibitor) | > 7.00 | > 7.00 | > 7.00 | C (C represents the MIC in the presence of ≤4 μg/mL of a β-lactamase inhibitor) | C (C represents the MIC in the presence of ≤4 μg/mL of a β-lactamase inhibitor) | 5.00 to 6.00 | C (C represents the MIC in the presence of ≤4 μg/mL of a β-lactamase inhibitor) | C (C represents the MIC in the presence of ≤4 μg/mL of a β-lactamase inhibitor) | 6.00 to 7.00 | – | – | – | – |
| C[C@@H](O)[C@H]1C(=O)N2C(C(=O)O)=C(S[C@@H]3CN[C@H](C(=O)N(C)C)C3)[C@H](C)[C@H]12 [Meropenem, reference compound] | – | – | – | – | – | – | – | – | – | – | – | – | – | 64 | 16 |
